Activity calls are given as the source filed them. How the calls were made is not given here.

In the series the test system is CCRIS mutagenicity, Ames/micronucleus/aberration tests. Briefly: CCRIS mutagenicity studies. To be noted: Test System: AMES SALMONELLA TYPHIMURIUM

Regarding `Cc1c(N(C)CS(=O)(=O)O)c(=O)n(-c2ccccc2)n1C`, the mutagenic call was “inactive; negative” (Strain/Indicator: TA97A, Metabolic Activation: NONE, Method: STANDARD PLATE); “active; positive” (Strain/Indicator: TA97A, Metabolic Activation: RAT LIVER S-9, PHENOBARBITAL, Method: STANDARD PLATE); “inactive; negative” (Strain/Indicator: TA98, Metabolic Activation: GUINEA PIG, LIVER, S-9, PCB, Method: PREINCUBATION); “inactive; negative” (Strain/Indicator: TA98, Metabolic Activation: HAMSTER, LIVER, S-9, PCB, Method: PREINCUBATION); “inactive; negative” (Strain/Indicator: TA98, Metabolic Activation: MOUSE, LIVER, S-9, PCB, Method: PREINCUBATION); “inactive; negative” (Strain/Indicator: TA98, Metabolic Activation: NONE, Method: STANDARD PLATE). In addition, the mutagenic call (Strain/Indicator: TA98, Metabolic Activation: RAT LIVER S-9, PHENOBARBITAL, Method: STANDARD PLATE) was “active; positive”; the mutagenic call (Strain/Indicator: TA98, Metabolic Activation: RAT, LIVER, S-9, PCB, Method: PREINCUBATION) is “inactive; negative”; the mutagenic call (Strain/Indicator: TA100, Metabolic Activation: GUINEA PIG, LIVER, S-9, PCB, Method: PREINCUBATION) is “inactive; negative”; the mutagenic call (Strain/Indicator: TA100, Metabolic Activation: HAMSTER, LIVER, S-9, PCB, Method: PREINCUBATION) was “inactive; negative”; the mutagenic call (Strain/Indicator: TA100, Metabolic Activation: MOUSE, LIVER, S-9, PCB, Method: PREINCUBATION) was “inactive; negative”; the mutagenic call (Strain/Indicator: TA100, Metabolic Activation: NONE, Method: STANDARD PLATE) is “inactive; negative”. Moreover, the mutagenic call is “inactive; negative” (Strain/Indicator: TA100, Metabolic Activation: RAT LIVER S-9, PHENOBARBITAL, Method: STANDARD PLATE); “active; positive” (Strain/Indicator: TA100, Metabolic Activation: RAT, LIVER, S-9, AROCLOR 1254, Method: PREINCUBATION); “active; positive” (Strain/Indicator: TA100, Metabolic Activation: RAT, LIVER, S-9, PCB, Method: PREINCUBATION); “inactive; negative” (Strain/Indicator: TA102, Metabolic Activation: NONE, Method: STANDARD PLATE); “inactive; negative” (Strain/Indicator: TA102, Metabolic Activation: RAT LIVER S-9, PHENOBARBITAL, Method: STANDARD PLATE).

The record behind these values is PubChem BioAssay AID1259407 (Chemical Carcinogenesis Research Information System (CCRIS), 2018).
